The target in data set [1] is T1, C-C chemokine receptor type 5 (Homo sapiens, UniProt P51681). The experiment in a line: Displacement of [125I]MIP-1alpha from human recombinant CCR5 expressed in CHO cells. Format: cell-based.
Target sequence in this assay (P51681 whole entry): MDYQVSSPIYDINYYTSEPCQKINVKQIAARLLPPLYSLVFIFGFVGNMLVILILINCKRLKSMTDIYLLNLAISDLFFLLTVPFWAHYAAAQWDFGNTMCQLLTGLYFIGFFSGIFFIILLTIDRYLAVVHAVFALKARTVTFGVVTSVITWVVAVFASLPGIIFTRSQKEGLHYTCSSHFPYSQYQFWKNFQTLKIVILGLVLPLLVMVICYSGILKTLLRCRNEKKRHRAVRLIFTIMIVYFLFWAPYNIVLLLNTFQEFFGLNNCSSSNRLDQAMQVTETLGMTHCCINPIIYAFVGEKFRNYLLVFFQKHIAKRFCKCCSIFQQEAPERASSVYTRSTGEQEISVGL
Data set [2] can be described thus: Intrinsic clearance in human liver microsomes.
The nature of data set [3]: Lipophilicity, log D of the compound at pH 7.4. The conditions noted are these: buffer.
For data set [4], the target named is Voltage-gated inwardly rectifying potassium channel KCNH2 (Homo sapiens, UniProt Q12809). The experiment in a line: Displacement of 3,7-Bis[2-(4-nitro[3,5-3H]phenyl)ethyl]-3,7-diazabicyclo[3.3.1]nonane from human ERG expressed in HEK cells after 3 hrs.
Sequence of Voltage-gated inwardly rectifying potassium channel KCNH2 (Q12809 whole entry): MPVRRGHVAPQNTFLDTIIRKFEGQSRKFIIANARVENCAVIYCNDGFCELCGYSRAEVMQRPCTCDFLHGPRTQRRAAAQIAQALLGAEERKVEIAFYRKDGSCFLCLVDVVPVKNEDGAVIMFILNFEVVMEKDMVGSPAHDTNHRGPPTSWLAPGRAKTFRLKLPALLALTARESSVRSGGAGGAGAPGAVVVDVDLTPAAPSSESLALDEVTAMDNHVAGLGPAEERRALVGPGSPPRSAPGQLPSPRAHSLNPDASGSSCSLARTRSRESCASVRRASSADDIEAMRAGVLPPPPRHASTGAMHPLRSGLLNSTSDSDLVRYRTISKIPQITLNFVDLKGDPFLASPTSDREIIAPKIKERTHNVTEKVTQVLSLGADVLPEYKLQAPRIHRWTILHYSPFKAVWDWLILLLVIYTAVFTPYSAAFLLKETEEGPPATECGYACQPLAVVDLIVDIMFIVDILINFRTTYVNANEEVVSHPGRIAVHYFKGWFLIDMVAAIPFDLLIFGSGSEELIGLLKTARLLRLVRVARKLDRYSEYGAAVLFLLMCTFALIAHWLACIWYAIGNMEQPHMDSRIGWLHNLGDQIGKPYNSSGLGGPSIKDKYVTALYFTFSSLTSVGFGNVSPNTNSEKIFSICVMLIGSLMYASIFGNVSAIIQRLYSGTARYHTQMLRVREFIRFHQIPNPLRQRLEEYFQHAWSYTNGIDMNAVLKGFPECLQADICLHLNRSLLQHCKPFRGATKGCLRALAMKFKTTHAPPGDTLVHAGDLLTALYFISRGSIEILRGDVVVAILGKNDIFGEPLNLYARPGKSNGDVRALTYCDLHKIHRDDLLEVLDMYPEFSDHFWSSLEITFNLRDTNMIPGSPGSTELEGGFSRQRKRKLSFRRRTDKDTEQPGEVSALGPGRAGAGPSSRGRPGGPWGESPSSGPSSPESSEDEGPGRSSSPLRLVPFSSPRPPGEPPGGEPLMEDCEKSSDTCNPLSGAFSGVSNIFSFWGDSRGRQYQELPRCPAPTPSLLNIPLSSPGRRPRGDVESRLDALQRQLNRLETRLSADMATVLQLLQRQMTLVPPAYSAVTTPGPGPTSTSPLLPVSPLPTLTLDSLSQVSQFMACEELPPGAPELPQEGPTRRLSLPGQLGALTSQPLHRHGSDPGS
Data set [5] is described as follows: Clearance in rat at 1 to 2 mg/kg, iv. Type of data set: ADME, organism-based. The arrangement: dose 1-2 mg/kg, route intravenous. The conditions noted are these: in vivo.
Data set [6] in a line: Volume of distribution at steady state in rat at 1 to 2 mg/kg, iv. Type of data set: ADME, organism-based. The conditions noted are these: in vivo, read-out: Vdss. Set-up: dose 1-2 mg/kg, route intravenous.
The nature of data set [7]: Half life in rat at 1 to 2 mg/kg, iv. Type of data set: ADME, organism-based. The arrangement: dose 1-2 mg/kg, route intravenous. The conditions noted are these: in vivo.
Data set [8] can be described thus: Oral bioavailability in rat at 2 to 5 mg/kg. Type of data set: ADME, organism-based. The conditions noted are these: in vivo.
The nature of data set [9]: Clearance in male dog at 1 to 2 mg/kg, iv. Type of data set: ADME, organism-based, Canis lupus familiaris. Set-up: dose 1-2 mg/kg, route intravenous. The conditions noted are these: in vivo.
Data set [10] in a line: Volume of distribution at steady state in male dog at 1 to 2 mg/kg, iv. The conditions noted are these: in vivo, read-out: Vdss. Format: ADME, organism-based, Canis lupus familiaris. The arrangement: dose 1-2 mg/kg, route intravenous.
Data set [11] is described as follows: Half life in male dog at 1 to 2 mg/kg, iv. Format: ADME, organism-based, Canis lupus familiaris. The arrangement: dose 1-2 mg/kg, route intravenous. The conditions noted are these: in vivo.
Data set [12] is described as follows: Oral bioavailability in male dog at 2 to 5 mg/kg. Type of data set: ADME, organism-based, Canis lupus familiaris. The conditions noted are these: in vivo.
Data set [13] in a line: Clearance in female dog at 1 to 2 mg/kg, iv. Type of data set: ADME, organism-based, Canis lupus familiaris. The arrangement: dose 1-2 mg/kg, route intravenous. The conditions noted are these: in vivo.
Data set [14] is described as follows: Volume of distribution at steady state in female dog at 1 to 2 mg/kg, iv. Type of data set: ADME, organism-based, Canis lupus familiaris. The conditions noted are these: in vivo, read-out: Vdss. The arrangement: dose 1-2 mg/kg, route intravenous.
Data set [15] can be described thus: Half life in female dog at 1 to 2 mg/kg, iv. Format: ADME, organism-based, Canis lupus familiaris. The arrangement: dose 1-2 mg/kg, route intravenous. The conditions noted are these: in vivo.
Data set [16] can be described thus: Oral bioavailability in female dog at 2 to 5 mg/kg. Type of data set: ADME, organism-based, Canis lupus familiaris. The conditions noted are these: in vivo.
Data set [17] concerns the target T1, C-C chemokine receptor type 5. The experiment in a line: Antagonist activity at CCR5 in human whole blood assessed as inhibition of MIP-1beta-induced receptor internalization. Format: functional, tissue-based.
Target sequence in this assay (P51681 whole entry, looked up): as the sequence (P51681 whole entry) above

The structures appear in SMILES notation. A value given as a limit tells only on which side of the number the result lay.

In the case of `CCN(C(=O)Cc1ccc(S(C)(=O)=O)cc1)C1CCN(CCC(c2ccccc2)C2CCN(S(=O)(=O)CC(F)(F)F)CC2)CC1` (stereo not given), in data set [1], the IC50 turned out to be 5.4 nM. For the same compound, the microsomal CLint in [2] (liver microsomes) worked out at 28 µL/min/mg. Moreover, in data set [3], the logD turned out to be 2.2.
With `CCN(C(=O)Cc1ccc(S(C)(=O)=O)cc1)C1CCN(CC[C@@H](c2ccccc2)N2CCN(S(=O)(=O)C(F)(F)F)CC2)CC1`, the values for the half-inhibitory concentration (IC50) in data set [1] and in data set [4] were 1.6 nM and 3200 nM, respectively. For the same compound, in data set [2] (liver microsomes), the microsomal CLint stood at 33 µL/min/mg.
On to `CCN(C(=O)Cc1ccc(S(C)(=O)=O)cc1)C1CCN(CC[C@@H](c2ccccc2)N2CCN(S(=O)(=O)CC(F)(F)F)CC2)CC1`, for which the IC50 in [1] was 8.9 nM; in data set [4] it was 5800 nM. Moreover, the microsomal CLint in data set [2] (liver microsomes) was determined as 47 µL/min/mg. Moreover, in data set [3], the logD was 1.8.
On to `CCN(C(=O)Cc1ccc(S(C)(=O)=O)cc1)C1CCN(CC[C@@H](c2ccccc2)C2CCN(S(C)(=O)=O)CC2)CC1`, for which the IC50 in data set [1] was determined as 1.1 nM; in data set [4], 25000 nM. In [2] (liver microsomes), the microsomal CLint turned out to be 31 µL/min/mg. Further, the logD in [3] is 1.1.
On to `CCN(C(=O)Cc1ccc(S(C)(=O)=O)cc1)C1CCN(CC[C@@H](c2ccccc2)C2CCN(S(=O)(=O)C(F)(F)F)CC2)CC1`, for which the IC50 was less than 0.1 nM in data set [1] and 1200 nM in data set [4]. The microsomal CLint in [2] (liver microsomes) amounted to 28 µL/min/mg. The compound further gave a logD in data set [3] of 3.4.
Take `CCN(C(=O)Cc1ccc(S(C)(=O)=O)cc1)C1CCN(CC[C@@H](c2cc(F)cc(F)c2)N2CCN(S(C)(=O)=O)CC2)CC1`: the results for the IC50 in data set [1] and in data set [4] were 3.7 nM and greater than 32000 nM, respectively. Moreover, the microsomal CLint in [2] (microsomes) worked out at 8 µL/min/mg. The log distribution coefficient (logD) in [3] was 1.2. In addition, the values for the clearance in data set [5], in data set [9] and in data set [13] were 71 mL/min/kg, 12 mL/min/kg and 7.5 mL/min/kg, respectively. Further, the Vd was 7.7 L/kg in [6], 3.2 L/kg in [10] and 2.2 L/kg in data set [14]. In addition, the results for the half-life in data set [7], in [11] and in data set [15] were 2.4 h, 8.3 h and 4.7 h, respectively. The bioavailability worked out at 7.3% in data set [8], 15% in [12] and 22% in data set [16].
Take `CCN(C(=O)Cc1ccc(S(C)(=O)=O)cc1)C1CCN(CC[C@@H](c2cccc(S(C)(=O)=O)c2)C2CCN(S(C)(=O)=O)CC2)CC1`: the half-inhibitory concentration (IC50) in data set [1] stood at 794 nM. Moreover, the logD in data set [3] is 0.6.
Regarding `CCN(C(=O)Cc1ccc(S(C)(=O)=O)cc1)C1CCN(CC[C@@H](c2cccc(OC)c2)C2CCN(S(C)(=O)=O)CC2)CC1`, the IC50 was determined as 5 nM in data set [1] and 32000 nM in data set [4]. This compound registered a microsomal CLint in [2] (liver microsomes) of 45 µL/min/mg. Further, the logD in [3] came to 1.2.
In data set [2] (liver microsomes), `CCN(C(=O)Cc1ccc(S(C)(=O)=O)cc1)C1CCN(CC[C@@H](c2cccc(F)c2)C2CCN(S(C)(=O)=O)CC2)CC1` displayed a microsomal CLint of 18 µL/min/mg.
Regarding `CCN(C(=O)Cc1ccc(S(C)(=O)=O)cc1)C1CCN(CC[C@@H](c2cccc(C)c2)C2CCN(S(C)(=O)=O)CC2)CC1`, in data set [1], the IC50 was found to be 0.44 nM. Further, the microsomal CLint in data set [2] (liver microsomes) is 104 µL/min/mg. The compound further came in with a logD in data set [3] of 1.5.
For the compound `CCN(C(=O)Cc1ccc(S(C)(=O)=O)cc1)C1CCN(CC[C@@H](c2cc(F)cc(Cl)c2)C2CCN(S(C)(=O)=O)CC2)CC1`, the microsomal CLint in data set [2] (liver microsomes) is 22 µL/min/mg. The compound also came in with a logD in [3] of 1.6.
On to `CCN(C(=O)Cc1ccc(S(C)(=O)=O)cc1)C1CCN(CC[C@@H](c2cc(C)cc(C)c2)C2CCN(S(C)(=O)=O)CC2)CC1`, for which the IC50 in data set [1] is less than 0.1 nM. In data set [2] (liver microsomes), the microsomal CLint was greater than 150 µL/min/mg. This compound returned a logD in [3] of 1.9.
As to `CCN(C(=O)Cc1ccc(S(C)(=O)=O)cc1)C1CCN(CC[C@@H](c2cccc(Cl)c2)C2CCN(S(C)(=O)=O)CC2)CC1`, the concentration for half-maximal inhibition (IC50) was 0.55 nM in data set [1] and 7900 nM in [4]. The microsomal CLint in data set [2] (liver microsomes) is 32 µL/min/mg. Besides, the pH-dependent lipophilicity (logD) in data set [3] is 1.8.
The like results for `CCN(C(=O)Cc1ccc(S(C)(=O)=O)cc1)C1CCN(CC[C@@H](c2cccc(C(F)(F)F)c2)C2CCN(S(C)(=O)=O)CC2)CC1` were, in that order, 3.5 nM, 7900 nM, 17 µL/min/mg and 1.9.
On to `CCN(C(=O)Cc1ccc(S(C)(=O)=O)cc1)C1CCN(CC[C@@H](c2cc(Cl)cc(Cl)c2)C2CCN(S(C)(=O)=O)CC2)CC1`, for which the IC50 was less than 0.1 nM in [1] and 6500 nM in [4]. Moreover, the logD in data set [3] stood at 2.6.
In data set [2] (liver microsomes), `CCN(C(=O)Cc1ccc(S(C)(=O)=O)cc1)C1CCN(CC[C@H](c2ccc(S(C)(=O)=O)cc2)c2cc(F)cc(F)c2)CC1` yielded a microsomal CLint of 8 µL/min/mg. Further, in [17], the A2 was determined as 1.1 nM.
Turning to `CCN(C(=O)Cc1ccc(S(C)(=O)=O)cc1)C1CCN(CCC(c2ccccc2)N2CCN(C)CC2)CC1` (racemic), the logD in [3] amounted to 0.9.
For `CCN(C(=O)Cc1ccc(S(C)(=O)=O)cc1)C1CCN(CCC(c2ccccc2)N2CCN(c3ccccc3)CC2)CC1` (racemic), the results for the IC50 in [1] and in data set [4] were 5 nM and 13000 nM, respectively. The same compound yielded a microsomal CLint in data set [2] (liver microsomes) of 26 µL/min/mg. The compound further showed a logD in data set [3] of 2.7.
Take `CCN(C(=O)Cc1ccc(S(C)(=O)=O)cc1)C1CCN(CCC(c2ccccc2)N2CCN(c3cccc(F)c3)CC2)CC1` (racemic): the IC50 was determined as 3.1 nM in data set [1] and 3200 nM in data set [4]. Besides, the microsomal CLint in data set [2] (liver microsomes) was 22 µL/min/mg. Further, the pH-dependent lipophilicity (logD) in [3] is 3.2.
Take `CCN(C(=O)Cc1ccc(S(C)(=O)=O)cc1)C1CCN(CCC(c2ccccc2)N2CCN(C(C)=O)CC2)CC1` (racemic): the IC50 in data set [1] was found to be 229 nM. The compound also displayed a logD in data set [3] of 0.9.
`CCN(C(=O)Cc1ccc(S(C)(=O)=O)cc1)C1CCN(CCC(c2ccccc2)N2CCN(S(C)(=O)=O)CC2)CC1` (racemic): in data set [1], the IC50 was determined as 39 nM. The same compound yielded a microsomal CLint in data set [2] (liver microsomes) of less than 3 µL/min/mg. Besides, the logD in [3] was found to be 0.8.
Turning to `CCN(C(=O)Cc1ccc(S(C)(=O)=O)cc1)C1CCN(CCC(c2ccccc2)N2CCN(S(=O)(=O)CC)CC2)CC1` (racemic), the IC50 in data set [1] came out at 15 nM. In data set [2] (liver microsomes), the microsomal CLint was 52 µL/min/mg. The same compound registered a logD in [3] of 1.
Turning to `CCN(C(=O)Cc1ccc(S(C)(=O)=O)cc1)C1CCN(CCC(c2ccccc2)N2CCC(C)CC2)CC1` (racemic), in data set [1], the IC50 stood at 339 nM. Moreover, the pH-dependent lipophilicity (logD) in data set [3] amounted to 2.
As to `CCN(C(=O)Cc1ccc(S(C)(=O)=O)cc1)C1CCN(CCC(c2ccccc2)N2CCC(Cc3ccccc3)CC2)CC1` (racemic), the IC50 in data set [1] was 162 nM. For the same compound, the logD in data set [3] is 3.7.
On to `CCN(C(=O)Cc1ccc(S(C)(=O)=O)cc1)C1CCN(CCC(c2ccccc2)N2CCC(C(C)=O)CC2)CC1` (racemic), for which the IC50 in data set [1] amounted to 83 nM. Also, the microsomal CLint in data set [2] (liver microsomes) was determined as 21 µL/min/mg. In data set [3], this compound displayed a logD of 0.9.
As for `CCN(C(=O)Cc1ccc(S(C)(=O)=O)cc1)C1CCN(CCC(c2ccccc2)C2CCN(C)CC2)CC1` (racemic), in data set [1], the IC50 came to 126 nM. The logD in [3] was determined as 1.
On to `CCN(C(=O)Cc1ccc(S(C)(=O)=O)cc1)C1CCN(CCC(c2ccccc2)C2CCN(Cc3ccccc3)CC2)CC1` (racemic), for which, in data set [1], the IC50 was found to be 8.9 nM. Further, the microsomal CLint in data set [2] (liver microsomes) is greater than 150 µL/min/mg.
As to `CCN(C(=O)Cc1ccc(S(C)(=O)=O)cc1)C1CCN(CCC(c2ccccc2)C2CCN(C(C)=O)CC2)CC1` (racemic), the IC50 in data set [1] was found to be 37 nM. For the same compound, the pH-dependent lipophilicity (logD) in [3] came to 1.4.
For `CCN(C(=O)Cc1ccc(S(C)(=O)=O)cc1)C1CCN(CCC(c2ccccc2)C2CCN(S(=O)(=O)CC)CC2)CC1` (racemic), the IC50 in data set [1] was determined as 2.4 nM. Moreover, in [2] (liver microsomes), the microsomal CLint worked out at 61 µL/min/mg. In addition, the logD in [3] is 1.6.
